From patent US20240368122A1, “JAK2 INHIBITORS AND METHODS OF USE THEREOF” (RELAY THERAPEUTICS, INC., priority 2021, published 2024)
Where two headings read alike, the source gives them in different places.

Legend:
[1] = system: TF1 JAK2 V617F STAT3 reporter; test: Cellular TF1 STAT3 assay (luciferase reporter), JAK2 V617F; format: cell-based; settings: read-out: Cell PD-TF1 JAK2 V617F STAT3 (IC50)
Method: (§1) Selected compounds of the present disclosure were tested in a Cellular TF1 STAT3 or STAT5 assay, to measure the degree of JAK2-mediated STAT3 or STAT5 phosphorylation, respectively. TF1 cells (immortalized erythroleukemia line) expressing either wildtype or V617F mutant JAK2 with a luciferase reporter were used.
(§2) Cell culture: Cells were put into antibiotic selection (1 ug/ml puro+500 ug/ml Geneticin) when first thawed then maintained in growth media without antibiotics. Cells were maintained in exponential growth phase, between 0.02-1 E6 cells/ml.
(§3) Compound preparation: Compounds were screened as 10-point dose response curves 1:3 dilutions. DMSO is used as the vehicle control. All wells were normalized to the same final DMSO concentration. Compounds were pre-spotted onto 384 well plates using an Echo acoustic dispenser, 50 nL of 1000× (10 mM top concentration) DMSO stock/well. Each compound is run in triplicate plates.
(§4) Cell plating: Cells were counted using Vi-Cell XR, then cells were spun down and resuspended in growth media to 200,000 cells/ml. Cells were added to plates containing compound. 10,000 cells/well in 50 ul volume using a Biomek liquid handler. Plates were briefly mixed on a shaker for 1 minute at 2500 rpm then placed in a 37° C., 5% CO2 incubator overnight for 18-20 hrs.
(§5) Measuring luciferase activity: ONE-glo reagent was brought to room temperature, and 25 μL of ONE-glo assay reagent was added to each well using Biomek liquid handler. The plates were incubated for 10 minutes at room temperature, then luminescence was measured on an Envision plate reader.

[2] = system: TF1 JAK2 V617F STAT5 reporter; test: Cellular TF1 STAT5 assay (luciferase reporter), JAK2 V617F; format: cell-based; settings: read-out: Cell PD TF1 V617F STAT5 (IC50)
Method: as §1, §2, §3, §4, §5

[3] = target: T1, JAK2 JH2 WT (V536-D812) [W659A, W777A, F794H solubilizing mutations] (Homo sapiens, UniProt O60674, F794H/W659A/W777A); test: Surface Plasmon Resonance (SPR) binding assay, JAK2 JH2 domain
T1 construct: **JAK2 JH2 WT (V536-D812) [W659A, W777A, F794H solubilizing mutations]; C-thrombin-avi-His6; thrombin cleavage site (C); His6 (C); purchased Biortus
T1 sequence (O60674 536-812 W659A/W777A/F794H): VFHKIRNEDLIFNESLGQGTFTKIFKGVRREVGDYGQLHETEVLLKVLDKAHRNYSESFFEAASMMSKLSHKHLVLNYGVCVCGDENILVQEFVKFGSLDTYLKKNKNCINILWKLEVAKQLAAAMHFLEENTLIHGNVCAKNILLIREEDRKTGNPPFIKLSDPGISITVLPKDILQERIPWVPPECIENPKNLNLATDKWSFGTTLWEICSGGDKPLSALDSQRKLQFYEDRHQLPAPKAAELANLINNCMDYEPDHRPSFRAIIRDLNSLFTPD
Method: Selected compounds of the present disclosure were tested in a Surface Plasmon Resonance (SPR) Assay to measure their binding kinetics and affinity for proteins of interest.
Prepare buffer: 50 mM HEPES pH 7.5, 150 mM NaCl, 0.05% (v/v) Tween, and 10% (v/v) glycerol were combined and pH was adjusted to 7.5, then filtered. 5 mM DTT, was added, and buffer without DMSO was reserved for compound resuspension. 2% (v/v) DMSO was added for assay buffer, and separately 1% DMSO was used to make buffer for resuspending compounds.
Prepare compounds: Using a Bravo liquid handler, 99 μL of 1% (v/v) DMSO assay buffer was added to 1 μL compounds in DMSO.
Run 8K Method: Biotin CAPture (CAP) chip surface was regenerated prior to run by: Inserting CAP chip into Biacore 8K, prime machine with assay buffer with 2% (v/v) DMSO; Setting instrument temperature to 20° C.; Conditioning surface with NaOH/GdnHCl reagents from CAP chip kit (60 seconds, 10 μL/min); and Capturing oligo-Streptavidin (SA) reagent from CAP kit (600 seconds, 1 μL/min), expected capture ˜2500 RU. JAK2 JH1 or JH2 protein was immobilized by preparing a sample of 0.5 uM JH1 or 0.4 uM JH2 protein diluted in assay buffer without DMSO and supplemented with 10 uM of a selected compound of the invention as a stabilizer (370 seconds, 5 uL/min), expected capture ˜1000 RU. Remaining biotin sites on SA were blocked with 1 uM biotin (30 seconds, 20 uL/min), then equilibrated for 1800 seconds at 100 uL/min. Compounds being assayed were run in single cycle kinetics: 4 doses with a top concentration of 5 uM (JH1) or 500 nM (JH2), dilution factor of 3, at 20° C., for a contact time of 60 seconds, and a dissociation time of 300 seconds (JH1) or 1200 seconds (JH2), at a flow rate of 30 uL/min. The surface was completely regenerated after each compound is run, and JH1 or JH2 protein was immobilized fresh prior to each new compound. Data were fitted kinetically with 1:1 binding model using Biacore Insight Evaluation Software.

[4] = Homo sapiens, TF-1, TF1 cells, JAK2 V617F

SMILES	IC50 [1, 4] [nM]	IC50 [2, 4] [nM]	Kd ([3]; SPR, JAK2 JH2 domain) [nM]	also measured
CNC(=O)c1nnc(NC(=O)OC2CC2)cc1Nc1cccc(-c2cnn(C3CC(Oc4cccc(C#N)n4)C3)c2)c1OC (mixture of isomers) [Compound 345]	5000 to 100000	500 to 5000	–	Kd [3]: 0.01 to 10 nM
CNC(=O)c1nnc(NC(=O)C2CC2)cc1Nc1cccc(-c2cnn(C3CN(C(C)c4ccccn4)C3)c2)c1OC (racemic) [Compound 127]	–	–	0.01 to 10	IC50 ([1]; TF1 JAK2 V617F): 500 to 5000 nM; IC50 ([2]; TF1 JAK2 V617F): 500 to 5000 nM
CNC(=O)c1nnc(NC(=O)C2CC2)cc1Nc1cccc(-c2cn([C@@H]3CN(Cc4cccc(C#N)n4)[C@H]3C)nn2)c1OC (racemic) [Compound 214]	50 to 500	50 to 500	–	Kd [3]: 0.01 to 10 nM
CNC(=O)c1nnc(NC(=O)C2CC2)cc1Nc1cccc(-c2cnn(C3CN(C(C)c4cccc(C#N)n4)C3)c2)c1OC (racemic) [Compound 227]	500 to 5000	500 to 5000	–	Kd [3]: 0.01 to 10 nM
CNC(=O)c1nnc(NC(=O)C2CC2)cc1Nc1cccc(-c2cn([C@@H]3CN(Cc4cccc(C)n4)[C@H]3C(OC)OC)nn2)c1OC (racemic) [Compound 247]	500 to 5000	500 to 5000	–	Kd [3]: 0.01 to 10 nM
CNC(=O)c1nnc(NC(=O)C2CC2)cc1Nc1ccc(C)c(-c2cn([C@@H]3CN(Cc4cccc(C)n4)[C@H]3C)nn2)c1OC (racemic) [Compound 270]	500 to 5000	500 to 5000	–	Kd [3]: 0.01 to 10 nM
CNC(=O)c1nnc(NC(=O)C2CC2)cc1Nc1cccc(-c2cnn(C3CN(C(C#N)c4ccccn4)C3)c2)c1OC (racemic) [Compound 315]	500 to 5000	5000 to 100000	–	Kd [3]: 0.01 to 10 nM
CNC(=O)c1nnc(NC(=O)C2CC2)cc1Nc1cccc(-c2ccc(C(=O)N(C)[C@H](C)c3nc(C)no3)nc2)c1OC (single isomer, unassigned) [Compound 65]	–	–	0.01 to 10	IC50 ([1]; TF1 JAK2 V617F): 500 to 5000 nM; IC50 ([2]; TF1 JAK2 V617F): 500 to 5000 nM
CNC(=O)c1nnc(NC(=O)C2CC2)cc1Nc1cccc(-c2ccc(C(=O)N(C)[C@H](C)c3cnn(C)c3)nc2)c1OC (single isomer, unassigned) [Compound 115]	–	–	10 to 50	IC50 ([1]; TF1 JAK2 V617F): 5000 to 100000 nM; IC50 ([2]; TF1 JAK2 V617F): 5000 to 100000 nM
CNC(=O)c1nnc(NC(=O)C2CC2)cc1Nc1cccc(-c2ccc(C(=O)N(C)[C@@H](C)c3cnn(C)c3)nc2)c1OC (single isomer, unassigned) [Compound 116]	–	–	0.01 to 10	IC50 ([1]; TF1 JAK2 V617F): 50 to 500 nM; IC50 ([2]; TF1 JAK2 V617F): 500 to 5000 nM
CNC(=O)c1nnc(NC(=O)C2CC2)cc1Nc1ccc(C)c(-c2cnc(C(=O)N(C)C[C@H]3CCN(C)C3=O)c(F)c2)c1OC (single isomer, unassigned) [Compound 117]	–	–	0.01 to 10	IC50 ([1]; TF1 JAK2 V617F): 5000 to 100000 nM; IC50 ([2]; TF1 JAK2 V617F): 5000 to 100000 nM
CNC(=O)c1nnc(NC(=O)C2CC2)cc1Nc1cccc(-c2ccc(C(=O)N(C)C[C@@H]3Cc4ccccc4CO3)nc2)c1OC (single isomer, unassigned) [Compound 138]	–	–	10 to 50	IC50 ([1]; TF1 JAK2 V617F): 500 to 5000 nM; IC50 ([2]; TF1 JAK2 V617F): 5000 to 100000 nM
CNC(=O)c1nnc(NC(=O)C2CC2)cc1Nc1cccc(-c2ccc(C(=O)N(C)C[C@H]3Cc4ccccc4CO3)nc2)c1OC (single isomer, unassigned) [Compound 139]	–	–	10 to 50	IC50 ([1]; TF1 JAK2 V617F): 500 to 5000 nM; IC50 ([2]; TF1 JAK2 V617F): 5000 to 100000 nM
CNC(=O)c1nnc(NC(=O)C2CC2)cc1Nc1cccc(-c2ccc(C(=O)N(C)C[C@@H]3CCCO3)nc2)c1OC (single isomer, unassigned) [Compound 140]	–	–	10 to 50	IC50 ([1]; TF1 JAK2 V617F): 5000 to 100000 nM; IC50 ([2]; TF1 JAK2 V617F): 5000 to 100000 nM
CNC(=O)c1nnc(NC(=O)C2CC2)cc1Nc1cccc(-c2cnn(C3CN(Cc4cccc([S@+](C)[O-])n4)C3)c2)c1OC (single isomer, unassigned) [Compound 402]	–	50 to 500	–	–
CNC(=O)c1nnc(NC(=O)C2CC2)cc1Nc1cccc(-c2cnn(C3CN(Cc4cccc([S@@+](C)[O-])n4)C3)c2)c1OC (single isomer, unassigned) [Compound 403]	–	50 to 500	–	–
CNC(=O)c1nnc(NC(=O)C2CC2)cc1Nc1cccc(-c2ccc(C(=O)N(C)Cc3cc([S@@+](C)[O-])ccn3)nc2)c1OC (single isomer, unassigned) [Compound 405]	–	50 to 500	–	–

SMILES	IC50 [1, 4] [nM]	IC50 [2, 4] [nM]	Kd ([3]; SPR, JAK2 JH2 domain) [nM]	also measured
CNC(=O)c1nnc(NC(=O)C2CC2)cc1Nc1cccc(-c2ccc(C(=O)N(C)Cc3cc([S@+](C)[O-])ccn3)nc2)c1OC (single isomer, unassigned) [Compound 407]	–	500 to 5000	–	–
CNC(=O)c1nnc(NC(=O)C2CC2)cc1Nc1cccc(-c2ccc(C(=O)N(C)C(C)c3cnn(C)c3)nc2)c1OC (centres unmarked) [Compound 46]	–	–	0.01 to 10	–
[2H]C([2H])([2H])N(Cc1cc(C#N)ccn1)C(=O)c1ncc(-c2c(C)ccc(Nc3cc(NC(=O)C4CC4)nnc3C(=O)NC)c2OC)cn1 [Compound 87]	–	–	0.01 to 10	–
CNC(=O)c1nnc(NC(=O)C2CC2)cc1Nc1cccc(-c2cnn(C3CN(Cc4nn(C)cc4C)C3)c2)c1OC [Compound 215]	500 to 5000	500 to 5000	–	–
CNC(=O)c1nnc(NC(=O)C2CC2)cc1Nc1cccc(-c2ccc(C(=O)N(C)Cc3cc(C#N)ccn3)c(C(F)F)c2)c1OC [Compound 233]	500 to 5000	500 to 5000	–	–
CNC(=O)c1nnc(NC(=O)C2CC2)cc1Nc1nccc(-c2ccc(C(=O)N(C)Cc3ncc(COC)s3)nc2)c1OC [Compound 375]	–	–	–	Kd [3]: 0.01 to 10 nM
CNC(=O)c1nnc(NC(=O)C2CC2)cc1Nc1cccc(-c2ccc(C3CN(Cc4ncc(OC)cc4Cl)C3)nc2)c1OC [Compound 386]	5000 to 100000	500 to 5000	–	–
CNC(=O)c1nnc(NC(=O)C2CC2)cc1Nc1cccc(-c2ccc(C3CN(Cc4ccc(C(F)(F)F)cn4)C3)nc2)c1OC [Compound 387]	5000 to 100000	500 to 5000	–	–
CNC(=O)c1nnc(NC(=O)C2CC2)cc1Nc1cccc(-c2ccc(C3CN(Cc4ccc(OC5CC5)cn4)C3)nc2)c1OC [Compound 390]	–	–	–	Kd [3]: 50 to 500 nM
COc1c(Nc2cc(NC(=O)C3CC3)nn3cc(C(N)=O)nc23)ccc(C)c1-c1cnn(C2CN(Cc3ccccn3)C2)c1 [Compound 392]	5000 to 100000	5000 to 100000	–	–
CNC(=O)c1nnc(NC(=O)C2CC2)cc1Nc1cccc(-c2cc(N3CC(Oc4ccccn4)C3)n(C)n2)c1OC [Compound 393]	500 to 5000	5000 to 100000	–	–
COc1c(Nc2cc(NC(=O)C3CC3)nn3cc(C#N)nc23)ccc(C)c1-c1cnn(C2CN(Cc3ccccn3)C2)c1 [Compound 395]	5000 to 100000	5000 to 100000	–	–
CNC(=O)c1nnc(NC(=O)C2CC2)cc1Nc1cc(F)c(C)c(-c2ccc(C(=O)N(C)Cc3cc(S(C)(=O)=O)ccn3)nc2)c1OC [Compound 400]	–	50 to 500	–	–
CNC(=O)c1nnc(NC(=O)C2CC2)cc1Nc1ccc(Cl)c(-c2ccc(C(=O)N(C)Cc3cc(S(C)(=O)=O)ccn3)nc2)c1OC [Compound 401]	–	50 to 500	–	–
CNC(=O)c1nnc(NC(=O)C2CC2)cc1Nc1cccc(-c2cc(N3CC(Cc4ccccn4)C3)n(C)n2)c1OC [Compound 404]	–	5000 to 100000	–	–
COc1c(Nc2cc(NC(=O)C3CC3)nnc2-c2ncc[nH]2)cccc1-c1cnn(C2CN(Cc3ccccn3)C2)c1 [Compound 406]	–	5000 to 100000	–	–
